The results in this text go back to patent US8563714B2, “Bridged spiro [2.4] heptane derivatives as ALX receptor and/or FPRL2 agonists” (Actelion Pharmaceuticals Ltd., priority 2009, dated 2013).

One assay deals with T1, human FPRL2 (Homo sapiens, UniProt P25089).
T1 construct: expressed in transfected cells; host or cells: HEK293 (HEK293-hFPRL2-Gα16)
T1 sequence (P25089 1-353): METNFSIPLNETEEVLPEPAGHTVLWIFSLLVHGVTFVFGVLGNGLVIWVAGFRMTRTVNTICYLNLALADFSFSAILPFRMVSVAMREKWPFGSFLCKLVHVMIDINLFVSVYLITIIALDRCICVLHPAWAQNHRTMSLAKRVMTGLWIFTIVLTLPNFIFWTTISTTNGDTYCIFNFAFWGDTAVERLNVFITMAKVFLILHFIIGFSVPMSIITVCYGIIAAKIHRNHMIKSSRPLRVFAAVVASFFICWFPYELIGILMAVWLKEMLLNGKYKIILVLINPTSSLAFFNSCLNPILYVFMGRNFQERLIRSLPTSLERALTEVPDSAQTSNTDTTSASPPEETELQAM
Nature of the assay: Intracellular calcium measurements (FLIPR), agonistic activity in HEK293-hFPRL2-Gα16 cells. The following applies: Fluo-4 calcium FLIPR, normalized to GLY14-Humanin 100 nM. The class given is cell-based. The gist of the method:
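Peak values after baseline subtraction are expressed relative to 100 nM Gly14-Humanin; compounds diluted in assay buffer from 10 mM DMSO stocks.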

Another assay deals with T2, human ALX receptor (Homo sapiens, UniProt P25090).
T2 construct: expressed in transfected cells; host or cells: HEK293 (HEK293-hALXR-Gα16)
T2 sequence (P25090 1-351): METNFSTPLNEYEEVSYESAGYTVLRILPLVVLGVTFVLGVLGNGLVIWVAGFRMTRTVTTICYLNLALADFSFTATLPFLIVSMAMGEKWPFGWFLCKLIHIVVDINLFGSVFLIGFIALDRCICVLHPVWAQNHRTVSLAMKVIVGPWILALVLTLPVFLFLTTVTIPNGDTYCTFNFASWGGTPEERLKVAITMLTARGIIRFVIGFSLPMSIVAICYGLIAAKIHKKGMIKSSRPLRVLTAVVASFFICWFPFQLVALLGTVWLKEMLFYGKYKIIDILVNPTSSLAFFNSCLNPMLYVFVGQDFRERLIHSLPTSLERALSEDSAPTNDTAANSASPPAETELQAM
In words: Intracellular calcium measurements (FLIPR), agonistic activity in HEK293-hALXR-Gα16 cells. It is filed as cell-based. The following applies: Fluo-4 calcium FLIPR, normalized to WKYMVm 10 nM. Summed up:
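Agonist-induced calcium flux was recorded by FLIPR (488/540 nm) in HEK293-hALXR-Gα16 cells pre-loaded with Fluo-4 AM (1 μM, 60 min, 37°C). Peak signal above baseline, after subtracting buffer addition, was expressed relative to WKYMVm at 10 nM final.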

A value given as a limit tells only on which side of the number the result lay.

The term EC50 denotes the concentration needed to bring the measured effect to its halfway point. In the case of `CC(=O)c1ccc(CNC(=O)[C@H]2[C@H](C(=O)NCCCCN3CCCC3)[C@H]3C=C[C@@H]2C32CC2)cc1` (racemic) [Example 363, (5R*)—N^5-(4-Acetylphenyl-methyl)-(6R*)—N^6-(4-pyrrolidino-butyl)-(4S*,7R*)-[4,7-ethenylene-spiro[2.4]heptane]-5,6-dicarboxamide], the figures for the EC50 on human FPRL2 and on human ALX receptor were 0.57 µM and 9.74 µM, respectively.

`O=C(NCC(F)(F)F)[C@H]1[C@H](C(=O)Nc2ccc(Br)cc2)[C@@H]2C=C[C@H]1C21CC1` (racemic) [Example 19, (5R*)—N^5-(4-Bromophenyl)-(6R*)—N^6-(2,2,2-trifluoro-ethyl)-(4S*,7R*)-[4,7-ethenylene-spiro[2.4]heptane]-5,6-dicarboxamide]: the EC50 worked out at 2.48 µM at human FPRL2 and 0.0024 µM on human ALX receptor.

In the case of `O=C(N[C@H]1CC[C@H](O)CC1)[C@H]1[C@H](C(=O)Nc2ccc(Br)cc2)[C@@H]2C=C[C@H]1C21CC1` (racemic) [Example 23, (5R*)—N^5-(4-Bromophenyl)-(6R*)—N^6-(4-hydroxy-cyclohexyl)-(4S*,7R*)-[4,7-ethenylene-spiro[2.4]heptane]-5,6-dicarboxamide], the EC50 at human FPRL2 is greater than 25 µM; at human ALX receptor, 0.0033 µM.

`CC(NC(=O)C1C(C(=O)NCCCCN2CCCC2)C2C=CC1C21CC1)c1ccc(Br)cc1` (mixture of isomers) [Example 132, (5R*)—N^5-(1-(4-Bromophenyl)-ethyl)-(6R*)—N^6-(4-pyrrolidin-1-yl-butyl)-(4S*,7R*)-[4,7-ethenylene-spiro[2.4]heptane]-5,6-dicarboxamide]: the EC50 at human FPRL2 was 0.079 µM; at human ALX receptor it was 0.898 µM.

For `O=C(NCCCCN1CCC(F)(F)C1)[C@H]1[C@H](C(=O)Nc2ccc(Br)cc2)[C@@H]2C=C[C@H]1C21CC1` [Example 401, (5R)—N^5-(4-Bromophenyl)-(6R)—N^6-(4-(3,3-difluoropyrrolidin-1-yl)butyl)-(4S,7R)-[4,7-ethenylene-spiro[2.4]heptane]-5,6-dicarboxamide], the EC50 was 0.516 µM at human FPRL2 and 0.0044 µM at human ALX receptor.

For `O=C(NCC1CCCCN1)[C@H]1[C@H](C(=O)Nc2ncc(Br)s2)[C@@H]2CC[C@H]1C21CC1` (stereo partly drawn) [Example 417, (5R)—N^5-(5-Bromothiazol-2-yl)-(6R)—N^6-[(piperidin-2-yl)-methyl]-(4S,7R)-[4,7-ethylene-spiro[2.4]heptane]-5,6-dicarboxamide], the EC50 on human FPRL2 amounted to 0.262 µM; at human ALX receptor, 0.0021 µM.

Regarding `O=C(NCCCCN1CCCC1)[C@H]1[C@H](C(=O)NCc2ccc(Br)c(F)c2F)[C@@H]2C=C[C@H]1C21CC1` [Example 327, (5R)—N^5-(4-Bromo-2,3-difluorophenyl-methyl)-(6R)—N^6-(4-pyrrolidino-butyl)-(4S,7R)-[4,7-ethenylene-spiro[2.4]heptane]-5,6-dicarboxamide], the EC50 on human FPRL2 was found to be 0.027 µM; at human ALX receptor it was 0.04 µM.

With `Cc1ccc(CCNC(=O)[C@H]2[C@H](C(=O)NCCCCN3CCCC3)[C@H]3C=C[C@@H]2C32CC2)cc1C` (racemic) [Example 380, (5R*)—N^5-(2-(3,4-Dimethylphenyl)ethyl)-(6R*)—N^6-(4-pyrrolidino-butyl)-(4S*,7R*)-[4,7-ethenylene-spiro[2.4]heptane]-5,6-dicarboxamide], the EC50 at human FPRL2 is 0.103 µM; at human ALX receptor, greater than 25 µM.

For `CCCCCCN(C)C(=O)[C@H]1[C@H](C(=O)Nc2ccc(Br)cc2)[C@@H]2C=C[C@H]1C21CC1` (racemic) [Example 84, (5R*)—N^5-(4-Bromophenyl)-(6R*)—N^6-methyl-N^6-hexyl-(4S*,7R*)-[4,7-ethenylene-spiro[2.4]heptane]-5,6-dicarboxamide], the EC50 is 5.5 µM at human FPRL2 and 0.133 µM at human ALX receptor.

`CCn1nc(C)cc1CCNC(=O)[C@H]1[C@H](C(=O)Nc2ccc(Br)cc2)[C@@H]2C=C[C@H]1C21CC1` (racemic) [Example 76, (5R*)—N^5-(4-Bromophenyl)-(6R*)—N^6-(2-(1-ethyl-3-methyl-1H-pyrazol-5-yl)-ethyl)-(4S*,7R*)-[4,7-ethenylene-spiro[2.4]heptane]-5,6-dicarboxamide]: the EC50 on human FPRL2 amounted to 2.43 µM; on human ALX receptor, 0.077 µM.

Turning to `CC(C)CNC(=O)[C@H]1[C@H](C(=O)Nc2ncc(Br)s2)[C@@H]2CC[C@H]1C21CC1` [Example 331, (5R)—N^5-(5-Bromo-thiazol-2-yl)-(6R)—N^6-(isobutyl)-(4S,7R)-[4,7-ethylene-spiro[2.4]heptane]-5,6-dicarboxamide], the EC50 was 8.25 µM at human FPRL2 and 0.082 µM at human ALX receptor.

`O=C(NCCCCN1CCCC1)[C@H]1[C@H](C(=O)NCc2cc(C(F)(F)F)ccc2Cl)[C@@H]2C=C[C@H]1C21CC1` (racemic) [Example 364, (5R*)—N^5-(2-Chloro-5-trifluoromethylphenyl-methyl)-(6R*)—N^6-(4-pyrrolidino-butyl)-(4S*,7R*)-[4,7-ethenylene-spiro[2.4]heptane]-5,6-dicarboxamide]: the figures for the EC50 on human FPRL2 and at human ALX receptor were 0.372 µM and 9.97 µM, respectively.

In the case of `O=C(NCCCCN1CCCC1)[C@H]1[C@H](C(=O)Nc2ncc(Br)s2)[C@@H]2CC[C@H]1C21CC1` [Example 238, (5R)—N^5-(5-Bromo-thiazol-2-yl)-(6R)—N^6-(4-pyrrolidin-1-yl-butyl)-(4S,7R)-[4,7-ethylene-spiro[2.4]heptane]-5,6-dicarboxamide], the EC50 on human FPRL2 stood at 0.142 µM; at human ALX receptor, 0.022 µM.

In the case of `COCCCNC(=O)[C@H]1[C@H](C(=O)Nc2ccc(Br)cc2)[C@@H]2CC[C@H]1C21CC1` (racemic) [Example 103, (5R*)—N^5-(4-Bromophenyl)-(6R*)—N^6-(3-methoxy-propyl)-(4S*,7R*)-[4,7-ethylene-spiro[2.4]heptane]-5,6-dicarboxamide], the EC50 came out at 6.92 µM at human FPRL2 and 0.0048 µM on human ALX receptor.

Regarding `NCCCNC(=O)[C@H]1[C@H](C(=O)Nc2ccc(Br)cc2)[C@@H]2C=C[C@H]1C21CC1` (racemic) [Example 16, (5R*)—N^5-(4-Bromophenyl)-(6R*)—N^6-(3-amino-propyl)-(4S*,7R*)-[4,7-ethenylene-spiro[2.4]heptane]-5,6-dicarboxamide], the values for the EC50 on human FPRL2 and at human ALX receptor were 3.92 µM and 0.0014 µM, respectively.

In the case of `O=C(NCCCCN1CCCC1)[C@H]1[C@H](C(=O)Nc2ccc(C(F)(F)F)nc2)[C@@H]2C=C[C@H]1C21CC1` (racemic) [Example 422, (5R*)—N^5-(2-Trifluoromethyl-pyridin-5-yl)-(6R*)—N^6-(4-pyrrolidin-1-yl-butyl)-(4S*,7R*)-[4,7-ethenylene-spiro[2.4]heptane]-5,6-dicarboxamide], the EC50 at human FPRL2 is 0.099 µM; at human ALX receptor it was 0.011 µM.

Turning to `NCCCCNC(=O)[C@H]1[C@H](C(=O)Nc2ccc(Br)cc2)[C@@H]2C=C[C@H]1C21CC1` (relative stereo) [Example 5, (5R*)—N^5-(4-Bromophenyl)-(6R*)—N^6-(4-amino-butyl)-(4S*,7R*)-[4,7-ethenylene-spiro[2.4]heptane]-5,6-dicarboxamide], the values for the EC50 on human FPRL2 and at human ALX receptor were 1.16 µM and 0.00034 µM, respectively.

For the molecule `CN(C)CCN(C)C(=O)[C@H]1[C@H](C(=O)Nc2ccc(Br)cc2)[C@@H]2C=C[C@H]1C21CC1` (racemic) [Example 45, (5R*)—N^5-(4-Bromophenyl)-(6R*)—N^6-methyl-N^6-(2-dimethylamino-ethyl)-(4S*,7R*)-[4,7-ethenylene-spiro[2.4]heptane]-5,6-dicarboxamide], the figures for the EC50 at human FPRL2 and at human ALX receptor were 4.16 µM and 0.011 µM, respectively.

On to `NCc1ccc(CNC(=O)[C@H]2[C@H](C(=O)Nc3ccc(Br)cc3)[C@@H]3C=C[C@H]2C32CC2)cc1` (racemic) [Example 38, (5R*)—N^5-(4-Bromophenyl)-(6R*)—N^6-[(4-aminomethyl-phenyl)-methyl]-(4S*,7R*)-[4,7-ethenylene-spiro[2.4]heptane]-5,6-dicarboxamide], for which the EC50 was found to be 1.55 µM on human FPRL2 and 0.0075 µM at human ALX receptor.

Take `O=C(NCC1CCNCC1)[C@H]1[C@H](C(=O)Nc2ncc(Br)s2)[C@@H]2CC[C@H]1C21CC1` [Example 337, (5R)—N^5-(5-Bromo-thiazol-2-yl)-(6R)—N^6-(piperidin-4-yl-methyl)-(4S,7R)-[4,7-ethylene-spiro[2.4]heptane]-5,6-dicarboxamide]: the results for the EC50 on human FPRL2 and on human ALX receptor were 1.21 µM and 0.0073 µM, respectively.
